Values quoted from earlier work in patent US20030039708A1, “NON-MA HUANG HERB WEIGHT LOSS PRODUCT” (priority 2001, published 2003).
Where two headings read alike, the source gives them in different places.

Key:
[1] = in vivo
[2] = obese patients
[3] = placed in water
[4] = double-blind study
[5] = placebo group gained weight over the length of the trial
[6] = in combination with diet, versus diet alone
[7] = not given; remark: listed apart in the source

## O=C(O[C@@H]1Cc2c(O)cc(O)cc2O[C@@H]1c1cc(O)c(O)c(O)c1)c1cc(O)c(O)c(O)c1 [Epigallocatechin gallate]
[1]
  blood cholesterol: significantly reduced
  blood triglyceride: significantly reduced
  body weight: significantly reduced
  food intake: significantly reduced
  growth of the prostate, uterus, and ovary: significantly reduced

## [Cr] [chromium]
Placebo group gained 6.5%
  abdominal fat gained: 1%
Statistically significant, maintained at the end of eight months
  reduction of insulin resistance: 40%
[2]
  lean body mass: increased

## Glucomannan
[3]
  swelling in water: up to 17 times its original volume
[4]
  HDL cholesterol: no significant increase
  LDL cholesterol: significant reductions
  systolic blood pressure: reduced
  total cholesterol: significant reductions
  triglycerides: significant reductions
[5]
  body weight change: weight loss
[6]
  blood glucose: more effective than diet alone
  body weight: more effective than diet alone
  hunger and satiety sensation: more effective than diet alone
  total serum cholesterol: more effective than diet alone
[7]; long term treatment of severe obesity
  tolerability: well tolerated
[7]; severely obese patients, diet plus glucomannan
  weight loss in relation to the fatty mass alone: more significant weight loss
